Test results from patent publication US20230348376A1 (TEIJIN PHARMA LIMITED, priority 2020, published 2023).
Like-named read-outs stand apart in the source and are kept apart here.

Assays:
[1] = Evaluation of brain penetration in mice (blood and brain concentration at brain Cmax); assay type: in vivo, mouse; conditions: 1 mg/kg single oral dose, C57BL/6J mice; for Concentration in blood (mean ± SD) at brain Cmax / Concentration in brain (mean ± SD) at brain Cmax: n=3; for Kp: male, C57BL/6J, mouse, brain/plasma, po, 1 mg/kg, read-out: Concentration in brain/in blood ratio at brain Cmax
Method: The administration solution was administered orally to C57BL/6J mice (8 weeks old, male, n=3) at a single dose (1 mg/kg). Mice were euthanized at 6 points of 0.25, 0.5, 1, 2, 4, and 8 hours after administration, and plasma and brain sampling were performed. After preparing a homogenate from the collected brain using Tissue Lyser II (QIAGEN #85300), acetonitrile was added to the homogenate and the homogenate was centrifuged (12000 rpm, 5 minutes) to extract the administered test compound contained in the brain. Similarly, the plasma was subjected to addition of acetonitrile and centrifugal separation to extract the administered test compound contained in the plasma. Each extracted sample was subjected to measurement of the concentration of administered test compound using LC/MS/MS (SHIMADZU UFLC/MS/MS (8050)).
Test 2 [0.2 mg/kg Administration Study] […] The administration solution was administered orally to C57BL/6J mice (8 weeks old, male, n=3) at a single dose (0.2 mg/kg). Mice were euthanized at 6 points of 0.25, 0.5, 1, 2, 4, and 8 hours after administration, and plasma and brain sampling were performed. After preparing a homogenate from the collected brain using Tissue Lyser II (QIAGEN #85300), acetonitrile was added to the homogenate and the homogenate was centrifuged (12000 rpm, 5 minutes) to extract the administered compound contained in the brain. Similarly, the plasma was subjected to addition of acetonitrile and centrifugal separation to extract the administered test compound contained in the plasma. Each extracted sample was subjected to measurement of the concentration of administered test compound using LC/MS/MS (SHIMADZU UFLC/MS/MS (8050)).

human VDR = molecular target: T1, human VDR (Homo sapiens, UniProt P11473); assay: Evaluation of VDR transcription activity in human osteoblasts (HOS cells), luciferase reporter; conditions: HOS cells transfected with human VDR, human RXRα and DR3 luciferase reporter, 21 hours
T1 sequence (P11473 1-427): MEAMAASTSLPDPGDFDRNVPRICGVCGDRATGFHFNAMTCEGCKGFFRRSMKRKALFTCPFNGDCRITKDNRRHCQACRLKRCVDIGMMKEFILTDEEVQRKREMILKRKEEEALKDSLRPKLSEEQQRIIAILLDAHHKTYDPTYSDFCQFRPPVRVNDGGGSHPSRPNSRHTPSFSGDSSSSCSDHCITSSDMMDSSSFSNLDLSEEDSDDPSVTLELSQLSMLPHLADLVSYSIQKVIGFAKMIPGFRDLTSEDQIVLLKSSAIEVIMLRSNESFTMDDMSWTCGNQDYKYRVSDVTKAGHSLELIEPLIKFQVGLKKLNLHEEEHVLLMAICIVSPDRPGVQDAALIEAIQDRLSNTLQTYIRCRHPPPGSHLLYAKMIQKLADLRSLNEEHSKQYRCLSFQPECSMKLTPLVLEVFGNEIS
T1 sequence (P19793 1-462 partner): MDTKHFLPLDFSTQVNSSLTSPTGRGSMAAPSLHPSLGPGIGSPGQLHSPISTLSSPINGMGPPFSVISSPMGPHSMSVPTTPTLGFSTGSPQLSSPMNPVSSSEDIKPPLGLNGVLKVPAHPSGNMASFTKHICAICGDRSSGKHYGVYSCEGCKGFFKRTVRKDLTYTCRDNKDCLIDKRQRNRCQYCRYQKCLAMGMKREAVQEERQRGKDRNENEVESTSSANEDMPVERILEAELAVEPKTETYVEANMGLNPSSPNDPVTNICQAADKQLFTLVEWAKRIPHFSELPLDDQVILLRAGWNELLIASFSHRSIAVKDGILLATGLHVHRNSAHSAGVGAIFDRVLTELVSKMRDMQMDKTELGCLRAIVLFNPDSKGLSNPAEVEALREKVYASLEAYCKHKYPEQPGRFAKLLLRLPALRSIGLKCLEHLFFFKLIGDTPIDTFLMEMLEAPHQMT

[2] = Activity (EC50, VDR transcription activity)

Row | Compound | Concentration in blood (mean ± SD) at brain Cmax [1] [nM] | Concentration in brain (mean ± SD) at brain Cmax [1] [pmol/g] | Kp [1] | EC50 (human VDR; [2]) [nM] | Concentration in brain/in blood ratio at brain Cmax [1] | EC50 (human VDR; read-out: Activity (EC50, VDR transcription activity)) [nM]
1 | C[C@H](CN1CCC(O)(C(F)(F)F)C1)[C@H]1CC[C@H]2/C(=C/C=C3C[C@@H](O)C[C@H](O)C3)CCC[C@]12C (single isomer, unassigned) [Compound B045a] | 530 ± 97 | 185 ± 116 | 0.35 | < 1 |  | 
2 | C[C@H](CN1CCC(O)(C(F)(F)F)C1)[C@H]1CC[C@H]2/C(=C/C=C3C[C@@H](O)C[C@H](O)C3)CCC[C@]12C (single isomer, unassigned) [Compound B045b] | 444 ± 113 | 109 ± 22 |  |  | 0.25 | < 1
3 | C=C1/C(=C\C=C2/CCC[C@]3(C)[C@@H]([C@@H](C)CN4CC[C@H](F)C4)CC[C@@H]23)C[C@@H](O)C[C@@H]1O [Compound B018, (1R,3S,Z)-5-(2-((1R,3aS,7aR,E)-1-((R)-1-((S)-3-fluoropyrrolidin-1-yl)propan-2-yl)-7a-methyloctahydro-4H-inden-4-ylidene)ethylidene)-4-methylenecyclohexane-1,3-diol] | 841 ± 197 | 533 ± 197 | 0.63 | 10 to 100 |  | 
4 | C[C@H](CN1CCC(O)(C(F)(F)F)CC1)[C@H]1CC[C@H]2/C(=C/C=C3C[C@@H](O)C[C@H](O)C3)CCC[C@]12C [Compound C002, (1R,3R)-5-(2-((1R,3aS,7aR,E)-1-((S)-1-(4-hydroxy-4-(trifluoromethyl)piperidin-1-yl)propan-2-yl)-7a-methyloctahydro-4H-inden-4-ylidene)ethylidene)cyclohexane-1,3-diol] | 402 ± 38 | 156 ± 14 | 0.39 | 10 to 100 |  | 
5 | C=C1/C(=C\C=C2/CCC[C@]3(C)[C@@H]([C@@H](C)CN4CCC(O)(C(F)(F)F)CC4)CC[C@@H]23)C[C@@H](O)[C@H](C)[C@@H]1O [Compound C006] | 510 ± 55 | 239 ± 23 | 0.47 | < 1 |  | 
6 | C=C1[C@H](O)CC(=C/C=C2\CCC[C@]3(C)[C@@H]([C@@H](C)CN4CCC(C(F)F)CC4)CC[C@@H]23)C[C@H]1O [Compound C019] | 335 ± 85 | 614 ± 153 | 1.83 | 1 to 10 |  | 
7 | C[C@H](CN1CCC[C@](C)(O)C1)[C@H]1CC[C@H]2/C(=C/C=C3C[C@@H](O)C[C@H](O)C3)CCC[C@]12C [Compound C039, (1R,3R)-5-(2-((1R,3aS,7aR,E)-1-((S)-1-((S)-3-hydroxy-3-methylpiperidin-1-yl)propan-2-yl)-7a-methyloctahydro-4H-inden-4-ylidene)ethylidene)cyclohexane-1,3-diol] | 132 ± 15 | 101 ± 8 | 0.77 | 1 to 10 |  | 
8 | C=C1[C@H](O)CC(=C/C=C2\CCC[C@]3(C)[C@@H]([C@H](C)CN4CCC(CC(F)F)CC4)CC[C@@H]23)C[C@H]1O [Compound C059, (1R,3R)-5-(2-((1R,3aS,7aR,E)-1-((S)-1-(4-(2,2-difluoroethyl)piperidin-1-yl)propan-2-yl)-7a-methyloctahydro-4H-inden-4-ylidene)ethylidene)-2-methylenecyclohexane-1,3-diol] | 167 ± 29 | 241 ± 21 | 1.44 | 10 to 100 |  | 
9 | C=C1[C@H](O)CC(=C/C=C2\CCC[C@]3(C)[C@@H]([C@H](C)CCN4C[C@@H](C)O[C@@H](C)C4)CC[C@@H]23)C[C@H]1O [Compound D028, (1R,3R)-5-(2-((1R,3aS,7aR,E)-1-((R)-4-((2S,6R)-2,6-dimethylmorpholino)butan-2-yl)-7a-methyloctahydro-4H-inden-4-ylidene)ethylidene)-2-methylenecyclohexane-1,3-diol] |  |  |  | 1 to 10 |  | 
10 | C=C1[C@H](O)CC(=C/C=C2\CCC[C@]3(C)[C@@H]([C@H](C)CCN4CCO[C@H](C(F)F)C4)CC[C@@H]23)C[C@H]1O [Compound D033, (1R,3R)-5-(2-((1R,3aS,7aR,E)-1-((R)-4-((S)-2-(difluoromethyl)morpholino)butan-2-yl)-7a-methyloctahydro-4H-inden-4-ylidene)ethylidene)-2-methylenecyclohexane-1,3-diol] |  |  |  | 1 to 10 |  | 
11 | C[C@H](CCN1CCO[C@H](C(F)F)C1)[C@H]1CC[C@H]2/C(=C/C=C3C[C@@H](O)C[C@H](O)C3)CCC[C@]12C [Compound D034, (1R,3R)-5-(2-((1R,3aS,7aR,E)-1-((R)-4-((S)-2-(difluoromethyl)morpholino)butan-2-yl)-7a-methyloctahydro-4H-inden-4-ylidene)ethylidene)cyclohexane-1,3-diol] |  |  |  | 10 to 100 |  | 
12 | C=C1/C(=C\C=C2/CCC[C@]3(C)[C@@H]([C@H](C)CCN4CCO[C@H](C(F)F)C4)CC[C@@H]23)C[C@@H](O)C[C@@H]1O [Compound D035, (1R,3S,Z)-5-(2-((1R,3aS,7aR,E)-1-((R)-4-((S)-2-(difluoromethyl)morpholino)butan-2-yl)-7a-methyloctahydro-4H-inden-4-ylidene)ethylidene)-4-methyloctahydro-1,3-diol] |  |  |  | 10 to 100 |  | 
13 | C=C1[C@H](O)CC(=C/C=C2\CCC[C@]3(C)[C@@H]([C@H](C)CCN4CCO[C@@H](C(F)F)C4)CC[C@@H]23)C[C@H]1O [Compound D036, (1R,3R)-5-(2-((1R,3aS,7aR,E)-1-((R)-4-((R)-2-(difluoromethyl)morpholino)butan-2-yl)-7a-methyloctahydro-4H-inden-4-ylidene)ethylidene)-2-methylenecyclohexane-1,3-diol] |  |  |  | 1 to 10 |  | 
14 | C=C1[C@H](O)CC(=C/C=C2\CCC[C@]3(C)[C@@H]([C@H](C)CCN4C[C@@H](C)OC[C@H]4C)CC[C@@H]23)C[C@H]1O [Compound D039, (1R,3R)-5-(2-((1R,3aS,7aR,E)-1-((R)-4-((2R,5R)-2,5-dimethylmorpholino)butan-2-yl)-7a-methyloctahydro-4H-inden-4-ylidene)ethylidene)-2-methylenecyclohexane-1,3-diol] |  |  |  | 1 to 10 |  | 
15 | C=C1[C@H](O)CC(=C/C=C2\CCC[C@]3(C)[C@@H]([C@H](C)CCN4CCO[C@H](C)C4)CC[C@@H]23)C[C@H]1O [Compound D040, (1R,3R)-5-(2-((1R,3aS,7aR,E)-7a-methyl-1-((R)-4-((R)-2-methylmorpholino)butan-2-yl)octahydro-4H-inden-4-ylidene)ethylidene)-2-methylenecyclohexane-1,3-diol] |  |  |  | 1 to 10 |  | 
16 | C[C@H](CCN1CCOCC1(C)C)[C@H]1CC[C@H]2/C(=C/C=C3C[C@@H](O)C[C@H](O)C3)CCC[C@]12C [Compound D049, (1R,3R)-5-(2-((1R,3aS,7aR,E)-1-((R)-4-(3,3-dimethylmorpholino)butan-2-yl)-7a-methyloctahydro-4H-inden-4-ylidene)ethylidene)cyclohexane-1,3-diol] |  |  |  | 100 to 1000 |  | 
